The text below walks through data of ChEMBL document CHEMBL5137025, “Tuberculosis Drug Discovery: Challenges and New Horizons” (J Med Chem, 2022).

pIC50: −log10 of the molar value. ≈ marks a conversion by molar mass, not a printed value.

For data set [1], the system named is Mycobacterium tuberculosis. Format: functional. Conditions: H37Rv.
Data set [2] in a line: Cytotoxicity against African green monkey Vero cells assessed as reduction in cell viability treated for 72 hrs by CCK8 assay. Format: toxicity, cell-based. Conditions: chlorocebus sabaeus. Background: Formazan colour is commonly taken as a measure of viable cells.
Data set [3] can be described thus: Half life in Sprague-Dawley rat at 10 mg/kg, po via gavage measured for 0.25 to 96 hrs by LC/MS analysis. The format is ADME, organism-based. Conditions: in vivo, time 0.25-96 hrs.
Data set [4] concerns Mycobacterium tuberculosis. The data set is described as follows: Antibacterial activity against Mycobacterium tuberculosis Erdman in acute Mtb infection BALB/c mouse model assessed as reduction in log10 CFU in lungs at 50 mg/kg, po via gavage for 8 weeks. The format is functional.
Data set [5] is described as follows: Acute toxicity in 10 to 14 hr fasted Sprague-Dawley rat assessed as maximum tolerated dose administered orally via gavage. Conditions: in vivo, time 10-14 hrs, route po.
Data set [6] has as its system Mycobacterium tuberculosis. Format: functional, H37Rv. Conditions: dose 200 mg/kg; route po; time 4 weeks.
Data set [7] addresses Voltage-gated inwardly rectifying potassium channel KCNH2 (Homo sapiens, UniProt Q12809). Kind of data set: Inhibition of hERG expressed in human HEK293 cells by manual patch clamp method. Format: toxicity, cell-based. For orientation: Block of hERG is tested as a sign of cardiac risk.
Data set [8] deals with Mycobacterium tuberculosis. Format: functional, H37Rv. Conditions: dose 3.1 mg/kg; route po; time 4 weeks.
The nature of data set [9]: Cytotoxicity against African green monkey Vero cells assessed as reduction in cell viability treated for 3 days by Cell Titer Glo assay. Format: toxicity, cell-based. Conditions: chlorocebus sabaeus, time 3 day.
The nature of data set [10]: Oral bioavailability in Sprague-Dawley rat at 10 mg/kg via gavage measured for 0.25 to 96 hrs by LC/MS analysis. The format is ADME, organism-based. Conditions: in vivo, time 0.25-96 hrs.
Data set [11] deals with Mycobacterium tuberculosis. The format is functional. Conditions: H37Rv, 168 h, time 7 day.
Data set [12] relates to Mycobacterium tuberculosis. The format is functional, H37Rv. Conditions: dose 100 mg/kg; route po; time 3 weeks.
For data set [13], the system named is Mycobacterium tuberculosis. The format is functional, H37Rv. Conditions: dose 50 mg/kg; route po; time 3 weeks.
The nature of data set [14]: Cytotoxicity against African green monkey Vero cells treated for 2 days by Cell Titer Glo assay. Format: toxicity, cell-based. Conditions: chlorocebus sabaeus, time 2 day. In general terms: ATP-based viability assays read luminescence as a measure of living cells.
Data set [15] relates to Mycobacterium tuberculosis. Kind of data set: Antibacterial activity against Mycobacterium tuberculosis Erdman in chronic Mtb infection BALB/c mouse model assessed as reduction in log10 CFU in lungs at 200 mg/kg, po via gavage for 30 days in presence of 1-aminobenzotriazole. The format is functional. Conditions: time 30 day.
In data set [16] the test system is Mycobacterium tuberculosis. The data set is described as follows: Antibacterial activity against Mycobacterium tuberculosis Erdman in chronic Mtb infection BALB/c mouse model assessed as reduction in log10 CFU in lungs at 200 mg/kg, po via gavage for 30 days. The format is functional. Conditions: time 30 day.
Data set [17] relates to Mycobacterium tuberculosis. Format: functional. Conditions: H37Rv, 216 h, time 9 day.
A short description of data set [18]: Permeability in human Caco2 cells treated for 1 to 2 hrs by LC-MS/MS analysis. Conditions: Caco-2, time 1-2 hrs, read-out: permeability. The format is ADME, cell-based.
Data set [19] deals with Mycobacterium tuberculosis. The format is functional. Conditions: H37Rv, 120 h, time 5 day.
The nature of data set [20]: Metabolic stability in human liver S9 microsomes assessed as half life in presence of NADPH by LC-MS/MS analysis. Format: ADME.
Data set [21] in a line: Half life in BALB/c mouse at 200 mg/kg, po measured for 0.5 to 24 hrs by LC-MS analysis. The format is ADME, organism-based. Conditions: in vivo, time 0.5-24 hrs.
The nature of data set [22]: Solubility of the compound in microbiological medium at pH 6.8. The format is physicochemical.
Data set [23] deals with Mycobacterium tuberculosis. The data set is described as follows: Antibacterial activity against Mycobacterium tuberculosis Erdman in chronic Mtb infection BALB/c mouse model assessed as reduction in log10 CFU in lungs at 100 mg/kg, po via gavage for 30 days in presence of 1-aminobenzotriazole. The format is functional. Conditions: time 30 day.
For data set [24], the system named is HepG2. The data set is described as follows: Cytotoxicity against human HepG2 cells assessed as reduction in cell viability treated for 3 days by resazurin reduction microplate assay. The format is functional. Conditions: HepG2, 72 h, time 3 day.
Data set [25] deals with Mycobacterium tuberculosis. Format: functional. Conditions: H37Rv, time 6 day.
The subject of data set [26] is Mycobacterium tuberculosis. Format: functional, H37Rv. Conditions: dose 200 mg/kg; route po; time 10 day.
For data set [27], the system named is HepG2. Kind of data set: Cytotoxicity against human HepG2 cells assessed as reduction in cell viability treated for 3 days by resazurin dye based assay. Format: functional. Conditions: HepG2, 72 h, time 3 day.
In data set [28] the test system is Mycobacterium tuberculosis. The format is functional. Conditions: H37Rv, time 6 day. This is another data set of the same source.
Data set [29] has as its system Mycobacterium tuberculosis. Format: functional, H37Rv. Conditions: dose 150 mg/kg; route po; time 10 day.
Data set [30] relates to Mycobacterium tuberculosis. The format is functional. Conditions: H37Rv, 336 h, time 14 day.
The test system of data set [31] is Mycobacterium tuberculosis. Format: functional, H37Rv. Conditions: dose 100 mg/kg; route po; time 4 weeks.
The test system of data set [32] is Mycobacterium tuberculosis. The format is functional, H37Rv. Conditions: dose 100 mg/kg; route po; time 2 weeks.
Data set [33] relates to Mycobacterium tuberculosis. Kind of data set: microbe, parasite or virus in culture. Conditions: H37Rv.
Description: Antibacterial activity against Mycobacterium tuberculosis H37Rv assessed as inhibition of bacterial growth
The test system of data set [34] is Mycolicibacterium smegmatis. The data set is described as follows: Inhibition of ATP synthesis in Mycobacterium smegmatis derived membrane vesicle incubated for 60 mins by luciferase based assay. Conditions: 1 h. Format: functional.
The subject of data set [35] is Mycobacterium tuberculosis. Format: functional, H37Rv. Conditions: dose 100 mg/kg; route po; time 10 day.

Chain of Voltage-gated inwardly rectifying potassium channel KCNH2 (Q12809 whole entry): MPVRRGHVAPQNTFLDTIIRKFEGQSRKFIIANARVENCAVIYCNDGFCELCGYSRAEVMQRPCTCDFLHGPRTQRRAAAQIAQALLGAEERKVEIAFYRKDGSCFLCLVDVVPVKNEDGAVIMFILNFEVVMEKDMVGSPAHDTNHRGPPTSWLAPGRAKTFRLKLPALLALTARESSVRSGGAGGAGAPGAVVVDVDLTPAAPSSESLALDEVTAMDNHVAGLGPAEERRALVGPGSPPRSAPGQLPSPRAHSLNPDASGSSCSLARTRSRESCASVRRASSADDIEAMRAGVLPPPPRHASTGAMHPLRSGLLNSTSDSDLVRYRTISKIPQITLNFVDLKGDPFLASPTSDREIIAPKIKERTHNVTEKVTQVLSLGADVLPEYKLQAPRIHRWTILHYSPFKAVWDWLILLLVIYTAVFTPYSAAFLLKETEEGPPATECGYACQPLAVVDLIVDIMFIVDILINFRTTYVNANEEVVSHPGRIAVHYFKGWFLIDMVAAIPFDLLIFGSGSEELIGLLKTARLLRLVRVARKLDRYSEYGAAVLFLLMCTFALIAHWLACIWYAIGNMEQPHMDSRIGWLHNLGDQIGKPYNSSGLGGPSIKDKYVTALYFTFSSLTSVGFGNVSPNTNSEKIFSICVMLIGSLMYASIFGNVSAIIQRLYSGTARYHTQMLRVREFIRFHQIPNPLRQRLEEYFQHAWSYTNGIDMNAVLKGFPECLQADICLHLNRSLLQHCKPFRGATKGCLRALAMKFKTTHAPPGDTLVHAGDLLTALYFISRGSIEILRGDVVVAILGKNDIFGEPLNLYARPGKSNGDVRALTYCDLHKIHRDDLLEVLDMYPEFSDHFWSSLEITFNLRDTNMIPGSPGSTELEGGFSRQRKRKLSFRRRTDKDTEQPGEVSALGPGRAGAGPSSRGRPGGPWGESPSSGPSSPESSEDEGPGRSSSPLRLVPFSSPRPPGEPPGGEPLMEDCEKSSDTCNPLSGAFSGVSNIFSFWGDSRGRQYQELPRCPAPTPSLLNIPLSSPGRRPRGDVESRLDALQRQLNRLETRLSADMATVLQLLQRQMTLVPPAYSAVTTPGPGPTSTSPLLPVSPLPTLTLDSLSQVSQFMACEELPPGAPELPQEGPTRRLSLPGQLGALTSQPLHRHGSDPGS

One may read the MIC90 as an inhibitory concentration at the 90% level, which refers to growth in some studies and to a panel of isolates in others. In general, CC50 refers to the concentration giving 50% cytotoxicity. In general, half-life refers to how long it takes for the measured level to halve. Broadly, the MTD is the highest dose tested that stayed within the study's limit of toxicity. The pIC50 is the IC50 on a negative log10 scale, so that one unit is a factor of ten. As a reminder, the bioavailability is dose-corrected exposure relative to a reference, in per cent. Consider `COc1ccn2nc(C)c(C(=O)NCc3ccc(N4CCC(c5ccc(OC(F)(F)F)cc5)CC4)cc3)c2c1`, for which the MIC90 in [1] turned out to be 0.011 µM (≈ 0.00592 µg/mL). Further, the CC50 at 72 h in data set [2] and in data set [9] was over 100 µM throughout. For the same compound, the half-life in data set [3] was 19 h. Further, the figures for the Activity in data set [4], in [6] and in [8] were 0.3 log10CFU, 2.2 log10CFU and 2.2 log10CFU, respectively. Further, the MTD in [5] is over 2000 mg/kg. In data set [7], this compound had a pIC50 of under 4.52. This compound also registered a bioavailability in [10] of 94%.
`CC(=O)NC[C@@H]1OC(=O)N2c3cc(F)c(N4CCSCC4)cc3OC[C@@H]12` displayed an MIC90 in data set [11] of 0.08 µM (≈ 0.0305 µg/mL). In addition, the Activity in [12] is reported as 5.1 log10CFU; in data set [13], “>=3 log10CFU”.
In general, MIC refers to the lowest concentration that inhibits growth of the organism. The solubility is the dissolved amount per volume that the medium holds. In turn, `Cc1cn2c(C(=O)NCc3ccc(N4CCN(c5ccc(C(F)(F)F)cn5)CC4)c(F)c3)c(C)nc2s1` showed a CC50 at 48 h in data set [14] of over 100 µM. Moreover, the Activity was determined as 0.6 log10CFU in data set [15], 0.3 log10CFU in data set [16] and 0.3 log10CFU in [23]. In data set [17], this compound yielded an MIC of 1.1 µM (≈ 0.586 µg/mL). Moreover, in [18], the Papp was under 1 ×10⁻⁶ cm/s. The compound also displayed an MIC90 in data set [19] of 0.008 µM (≈ 0.00426 µg/mL). In addition, the half-life in data set [20] was 0.467 h; in data set [21], over 24 h. In data set [22], the concentration in solution (solubility) came to 50 µM (≈ 26.6 µg/mL).
For the compound `O=C(/C=C/c1cccs1)N1CCN(Cc2ccc3c(c2)OCO3)CC1`, in data set [24], the CC50 was 140 µM. The MIC90 in data set [25] is 0.14 µM (≈ 0.0499 µg/mL). In data set [26], this compound returned an Activity of 0.4 log10CFU.
As to `CCSc1nc(NC)c2ccc(F)c(F)c2n1`, in data set [27], the CC50 came to 153 µM. In [28], this compound displayed an MIC90 of 0.2 µM (≈ 0.0511 µg/mL). The same compound gave an Activity in [29] of 0.5 log10CFU.
One may read the MIC99 as an inhibitory concentration at the 99% level, which refers to growth in some studies and to a panel of isolates in others. In turn, `Cc1cnc2c(c1)cc([N+](=O)[O-])c1cccnc12` showed an MIC99 in data set [30] of 0.2 µM (≈ 0.0478 µg/mL). In data set [31], this compound showed an Activity of 1 log10CFU.
With `CN(C)CCOc1ncc(Nc2cc(-c3ccccc3)nc3cc(-c4ccc(F)cc4)nn23)cc1F`, in data set [32], the Activity was 1.5 log10CFU. Besides, in data set [33], the MIC80 worked out at 6.2 µM (≈ 3.02 µg/mL). In data set [34], this compound had a pIC50 of 6.30.
Take `O=C(/C=C/c1nccs1)N1CCN(Cc2ccc3c(c2)OCO3)CC1`: in [24], the CC50 stood at 210 µM. Also, the Activity in data set [35] was determined as 0.9 log10CFU. The compound also had an MIC90 in [25] of 0.84 µM (≈ 0.3 µg/mL).
